Experimental data: US20090105124A1, “HETEROCYCLIC MODULATORS OF TGR5” (Kalypsys, Inc., priority 2007, published 2009)

Target: T1, human TGR5 (Homo sapiens, UniProt Q8TDU6)
T1 construct: expressed in transfected cells
T1 sequence (Q8TDU6 1-330): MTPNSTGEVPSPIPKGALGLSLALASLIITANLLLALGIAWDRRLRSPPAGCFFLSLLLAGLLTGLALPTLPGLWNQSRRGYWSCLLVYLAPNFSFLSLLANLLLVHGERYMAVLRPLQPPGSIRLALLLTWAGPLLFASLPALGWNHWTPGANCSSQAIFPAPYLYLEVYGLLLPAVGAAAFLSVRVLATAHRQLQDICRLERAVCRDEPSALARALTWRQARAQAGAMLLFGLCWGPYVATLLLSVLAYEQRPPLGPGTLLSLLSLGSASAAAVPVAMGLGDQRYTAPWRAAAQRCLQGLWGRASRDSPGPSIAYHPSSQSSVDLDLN
Assay: cAMP production assay in HEK293 cells stably expressing TGR5 (LANCE cAMP, TR-FRET)
Format: cell-based
Conditions: stimulated with test compounds for 30 minutes, 1 mM IBMX, read-out: cAMP Production in 293-TGR5 Cells
Description: HEK293 cells stably expressing TGR5 (HEK293-TGR5) were established by stably transfecting HEK-293 cells with an expression vector (pcDNA 3.1, Invetrogen) inserted with human TGR5 cDNA using Fugene6 (Roche, Indianapolis, Ind.) according to conventional methods. Cells were grown in DMEM (invitrogen, Carlsbad, Calif.) supplemented with 10% FBS, 1% penicillin/streptomycin under geneticin selection. The presence of TGR5 transcripts in these cells was confirmed using branched DNA (bDNA, Genospectra, Inc., Fremont Calif.) following the manufacturer's protocol and using specific probes for human TGR5. cAMP production assay was performed in high throughput 1536 well format using LANCE cAMP detection kit (Perkin Elmer Inc., Boston, Mass.) according to the manufacturer's protocol. Briefly, HEK293-TGR5 cells were harvested using non-enzymatic cell dissociation buffer (Invitrogen, Carlsbad, Calif.) and suspended in DMEM supplemented with 0.1% FBS at a density of 800,000 cells/ml. Alexa antibody was added to the cell suspension, and 4 ul of the mixture was dispensed in white opaque tissue culture treated Greiner 1536 well plates (USA Scientific, Inc., Ocala, Fla.). After an overnight incubation at 37 C in an atmosphere of 10% CO2 and 95% humidity, 1 ul of 5 mM IBMX (Sigma, St. Louis, Mo.) solution in DMEM was dispensed for a final concentration of 1 mM. Cells were then stimulated with test compounds for 30 minutes, after which time 5 ul of detection reagent was added and incubated for 1-7 hrs at room temperature. TR-FRET signal was detected using the Viewlux (Perkin Elmer Inc., Boston Mass.). EC50 values were determined using Graph Pad Prizm analysis (GraphPad Software, Inc). The EC50 values for a wide range of bile acids generated from this assay were in agreement with the values published in the scientific literature. […] The symbol (+) denotes an EC50 value of ≦10 μM while the symbol (−) denotes an EC50 value of >10 μM (see Table 1).

EC50, ≤ 10 µM:
Cc1cncc(-c2nc3nccnc3c(=O)n2NCc2ccc(Cl)cc2)c1 [Example 47, 3-{[(4-Chlorophenyl)methyl]amino}-2-(5-methylpyridin-3-yl)-3,4-dihydropteridin-4-one]
COc1cc(-c2nc3ncccc3c(=O)n2NCc2ccc(Cl)cc2)ccc1O [Example 15, 3-{[(4-Chlorophenyl)methyl]amino}-2-(4-hydroxy-3-methoxyphenyl)-3H,4H-pyrido[2,3-d]pyrimidin-4-one]
O=c1c2cccnc2nc(-c2ccc(F)cc2)n1NCc1ccc(C(F)(F)F)cc1 [Example 11, 2-(4-Fluorophenyl)-3-({[4-(trifluoromethyl)phenyl]methyl}amino)-3H,4H-pyrido[2,3-d]pyrimidin-4-one]
Cn1ncc2nc(-c3ccc(F)cc3)n(NCc3ccc(Br)cc3)c(=O)c21 [Example 40, 6-{[(4-Bromophenyl)methyl]amino}-5-(4-fluorophenyl)-1-methyl-1H,6H,7H-pyrazolo[4,3-d]pyrimidin-7-one]
O=c1c2ccsc2nc(-c2ccc(F)cc2)n1NCc1ccc(Br)cc1 [Example 31, 3-{[(4-Bromophenyl)methyl]amino}-2-(4-fluorophenyl)-3H,4H-thieno[2,3-d]pyrimidin-4-one]
O=c1c2ccsc2nc(-c2ccc(F)cc2)n1NCc1ccc(Cl)c(Cl)c1 [Example 33, 3-{[(3,4-Dichlorophenyl)methyl]amino}-2-(4-fluorophenyl)-3H,4H-thieno[2,3-d]pyrimidin-4-one]
O=c1c2cccnc2nc(-c2ccc(F)cc2)n1NCc1ccc(Cl)cc1 [Example 10, 3-{[(4-Chlorophenyl)methyl]amino}-2-(4-fluorophenyl)-3H,4H-pyrido[2,3-d]pyrimidin-4-one]
